According to PubChem BioAssay (NCI):
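GI50 marks 50% less growth. TGI: concentration producing complete growth inhibition.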

How the values were obtained:
Experiment in all cases: NCI tumour cell line growth inhibition, 384-well format
NCI/ADR-RES ovarian = tested on: NCI/ADR-RES ovarian
SK-MEL-28 melanoma = tested on: SK-MEL-28 melanoma
UACC-62 melanoma = tested on: UACC-62 melanoma
SF-295 CNS = tested on: SF-295 CNS
HT29 colon = tested on: HT29 colon
HCC-2998 colon = tested on: HCC-2998 colon
786-0 renal = tested on: 786-0 renal
CCRF-CEM leukemia = tested on: CCRF-CEM leukemia
LOX IMVI melanoma = tested on: LOX IMVI melanoma
MDA-MB-231 breast = tested on: MDA-MB-231 breast
SW-620 colon = tested on: SW-620 colon
K-562 leukemia = tested on: K-562 leukemia
RXF 393 renal = tested on: RXF 393 renal
BT-549 breast = tested on: BT-549 breast
CAKI-1 renal = tested on: CAKI-1 renal
A498 renal = tested on: A498 renal
TK-10 renal = tested on: TK-10 renal
MALME-3M melanoma = tested on: MALME-3M melanoma
RPMI-8226 leukemia = tested on: RPMI-8226 leukemia
SNB-75 CNS = tested on: SNB-75 CNS
OVCAR-5 ovarian = tested on: OVCAR-5 ovarian
M14 melanoma = tested on: M14 melanoma
SNB-19 CNS = tested on: SNB-19 CNS
OVCAR-8 ovarian = tested on: OVCAR-8 ovarian
MDA-MB-435 melanoma = tested on: MDA-MB-435 melanoma
COLO 205 colon = tested on: COLO 205 colon
HOP-92 NSCLC = tested on: HOP-92 NSCLC
HCT-15 colon = tested on: HCT-15 colon
HS 578T breast = tested on: HS 578T breast
MOLT-4 leukemia = tested on: MOLT-4 leukemia
NCI-H322M lung = tested on: NCI-H322M lung
IGROV1 ovarian = tested on: IGROV1 ovarian
OVCAR-4 ovarian = tested on: OVCAR-4 ovarian
ACHN renal = tested on: ACHN renal
A549 NSCLC = tested on: A549 NSCLC
NCI-H522 lung = tested on: NCI-H522 lung
NCI-H23 lung = tested on: NCI-H23 lung
U251 glioblastoma = tested on: U251 glioblastoma
OVCAR-3 ovarian = tested on: OVCAR-3 ovarian
PC-3 prostate = tested on: PC-3 prostate
MDA-MB-468 breast = tested on: MDA-MB-468 breast
SF-539 CNS = tested on: SF-539 CNS
KM12 colon = tested on: KM12 colon
EKVX NSCLC = tested on: EKVX NSCLC
SF-268 CNS = tested on: SF-268 CNS
HCT-116 colon = tested on: HCT-116 colon
DU-145 prostate = tested on: DU-145 prostate
T-47D breast = tested on: T-47D breast
UO-31 renal = tested on: UO-31 renal
MCF7 breast = tested on: MCF7 breast
NCI-H460 NSCLC = tested on: NCI-H460 NSCLC
UACC-257 melanoma = tested on: UACC-257 melanoma
NCI-H226 lung = tested on: NCI-H226 lung
HOP-62 NSCLC = tested on: HOP-62 NSCLC
HL-60(TB) leukemia = tested on: HL-60(TB) leukemia
SN12C renal = tested on: SN12C renal
SK-MEL-5 melanoma = tested on: SK-MEL-5 melanoma
SK-OV-3 ovarian = tested on: SK-OV-3 ovarian

With `C=CC(=O)Nc1cc2c(Nc3ccc(F)c(Cl)c3)ncnc2cc1OCCCN1CCOCC1` the GI50 (NCI/ADR-RES ovarian) was 1450 nM, the TGI (NCI/ADR-RES ovarian) was 2870 nM and the GI50 (SK-MEL-28 melanoma) was 2030 nM. It also gave a TGI (SK-MEL-28 melanoma) of 3520 nM, a GI50 (UACC-62 melanoma) of 1450 nM and a TGI (UACC-62 melanoma) of 2780 nM. For the same compound, the GI50 (SF-295 CNS) was 4620 nM, the TGI (SF-295 CNS) was 15800 nM and the GI50 (HT29 colon) was 1550 nM. The TGI (HT29 colon) was 3000 nM, the GI50 (HCC-2998 colon) was 1320 nM and the TGI (HCC-2998 colon) was 2630 nM. It also gave a GI50 ([…]-0 renal) of 1160 nM, a TGI (786-0 renal) of 2490 nM and a GI50 (CCRF-CEM leukemia) of 1200 nM. For the same compound, the TGI (CCRF-CEM leukemia) was 2460 nM, the GI50 (LOX IMVI melanoma) was 1510 nM and the TGI (LOX IMVI melanoma) was 2870 nM. For the same compound, the GI50 (MDA-MB-231 breast) was 1530 nM, the TGI (MDA-MB-231 breast) was 3770 nM and the GI50 (SW-620 colon) was 1690 nM. It also gave a TGI (SW-620 colon) of 3080 nM, a GI50 (K-562 leukemia) of 1210 nM and a TGI (K-562 leukemia) of 2490 nM. It also gave a GI50 (RXF 393 renal) of 620 nM, a TGI (RXF 393 renal) of 2000 nM and a GI50 (BT-549 breast) of 1060 nM. The TGI (BT-549 breast) was 2270 nM, the GI50 (CAKI-1 renal) was 462 nM and the TGI (CAKI-1 renal) was 1990 nM. For the same compound, the GI50 (A498 renal) was 424 nM, the TGI (A498 renal) was 1910 nM and the GI50 (TK-10 renal) was 36.8 nM. The TGI (TK-10 renal) was 2090 nM, the GI50 (MALME-3M melanoma) was 1720 nM and the TGI (MALME-3M melanoma) was 3130 nM. For the same compound, the GI50 (RPMI-8226 leukemia) was 1220 nM, the TGI (RPMI-8226 leukemia) was 2490 nM and the GI50 (SNB-75 CNS) was 1120 nM. The TGI (SNB-75 CNS) was 2910 nM, the GI50 (OVCAR-5 ovarian) was 1740 nM and the TGI (OVCAR-5 ovarian) was 13600 nM. It also gave a GI50 (M14 melanoma) of 1580 nM, a TGI (M14 melanoma) of 2950 nM and a GI50 (SNB-19 CNS) of 1850 nM. For the same compound, the TGI (SNB-19 CNS) was 4140 nM, the GI50 (OVCAR-8 ovarian) was 1440 nM and the TGI (OVCAR-8 ovarian) was 2790 nM. The GI50 (MDA-MB-435 melanoma) was 2420 nM, the TGI (MDA-MB-435 melanoma) was 5090 nM and the GI50 (COLO 205 colon) was 1600 nM. For the same compound, the TGI (COLO 205 colon) was 3110 nM, the GI50 (HOP-92 NSCLC) was 1400 nM and the TGI (HOP-92 NSCLC) was 2930 nM. For the same compound, the GI50 (HCT-15 colon) was 1190 nM, the TGI (HCT-15 colon) was 2470 nM and the GI50 (HS 578T breast) was 1220 nM. For the same compound, the TGI (HS 578T breast) was 2490 nM, the GI50 (MOLT-4 leukemia) was 933 nM and the TGI (MOLT-4 leukemia) was 2150 nM. The GI50 (NCI-H322M lung) was less than 10 nM, the TGI (NCI-H322M lung) was 1290 nM and the GI50 (IGROV1 ovarian) was less than 10 nM. The TGI (IGROV1 ovarian) was 838 nM, the GI50 (OVCAR-4 ovarian) was 2020 nM and the TGI (OVCAR-4 ovarian) was 6000 nM. For the same compound, the GI50 (ACHN renal) was 13.1 nM, the TGI (ACHN renal) was 1660 nM and the GI50 (A549 NSCLC) was 1320 nM. It also gave a TGI (A549 NSCLC) of 2710 nM, a GI50 (NCI-H522 lung) of 65.3 nM and a TGI (NCI-H522 lung) of 454 nM. For the same compound, the GI50 (NCI-H23 lung) was 1470 nM, the TGI (NCI-H23 lung) was 2800 nM and the GI50 (U251 glioblastoma) was 1910 nM. The TGI (U251 glioblastoma) was 3790 nM, the GI50 (OVCAR-3 ovarian) was 1030 nM and the TGI (OVCAR-3 ovarian) was 2220 nM. It also gave a GI50 (PC-3 prostate) of 1690 nM, a TGI (PC-3 prostate) of 3110 nM and a GI50 (MDA-MB-468 breast) of less than 10 nM. It also gave a GI50 (SF-539 CNS) of 1370 nM, a TGI (SF-539 CNS) of 2680 nM and a GI50 (KM12 colon) of 1580 nM. It also gave a TGI (KM12 colon) of 3020 nM, a GI50 (EKVX NSCLC) of 50.7 nM and a TGI (EKVX NSCLC) of 1930 nM. For the same compound, the GI50 (SF-268 CNS) was 209 nM, the TGI (SF-268 CNS) was 1650 nM and the GI50 (HCT-116 colon) was 1760 nM. It also gave a TGI (HCT-116 colon) of 3260 nM, a GI50 (DU-145 prostate) of 1070 nM and a TGI (DU-145 prostate) of 4190 nM. For the same compound, the GI50 (T-47D breast) was 54.7 nM, the TGI (T-47D breast) was 1440 nM and the GI50 (UO-31 renal) was 1170 nM. The TGI (UO-31 renal) was 4220 nM, the GI50 (MCF7 breast) was 1140 nM and the TGI (MCF7 breast) was 2520 nM. For the same compound, the GI50 (NCI-H460 NSCLC) was 1510 nM, the TGI (NCI-H460 NSCLC) was 2900 nM and the GI50 (UACC-257 melanoma) was 1310 nM. It also gave a TGI (UACC-257 melanoma) of 2620 nM, a GI50 (NCI-H226 lung) of 1960 nM and a TGI (NCI-H226 lung) of 4700 nM. For the same compound, the GI50 (HOP-62 NSCLC) was 1640 nM, the TGI (HOP-62 NSCLC) was 3700 nM and the GI50 (HL-60(TB) leukemia) was 1220 nM. It also gave a TGI (HL-60(TB) leukemia) of 2500 nM, a GI50 (SN12C renal) of 267 nM and a TGI (SN12C renal) of 1910 nM. For the same compound, the GI50 (SK-MEL-5 melanoma) was 1410 nM, the TGI (SK-MEL-5 melanoma) was 2750 nM and the GI50 (SK-OV-3 ovarian) was 1060 nM. For the same compound, the TGI (SK-OV-3 ovarian) was 2670 nM.
